Laboratory results reported in paper PMC10256634, “Comparative in vivo toxicokinetics of silver powder, nanosilver and soluble silver compounds after oral administration to rats” (Archives of Toxicology, 2023).

Key:
[1] = Absolute bioavailability (F value) from single-dose oral and i.v. blood AUC; assay type: in vivo, Sprague–Dawley rats; conditions: single-dose oral vs i.v. AUC; data not shown
Experimental: All in vivo and analytical experimental segments were performed in accordance with Good Laboratory Practice standards (OECD [1998]) and the adopted TK experimental design conformed to approaches set out in OECD TG 417 ([2010]). Comparative TK data for the various test items were obtained after single doses, and repeated dose administration for 28 days. This was based on measurement of Ag levels in whole blood at various timepoints, and also total Ag content in tissues (in the repeated dose study phase). This approach facilitated a direct quantitative comparison of parameters such as bioavailability, achieved systemic exposure and the delivered Ag dose to tissues after administration of the different Ag test items. Determination of single-dose p.o. and i.v. blood-level profiles was intended to provide information on absolute bioavailability (F value). Parallel vehicle control groups were included within each phase.
Animals (4 per sex/per treatment level) received test item via i.v. injection or oral gavage administration. Intravenous injection (bolus) was via the tail vein. Oral gavage administration was performed using a suitable graduated syringe and a rubber catheter. Dosing volumes for i.v. and oral administration were calculated based on the individual animal bodyweights.

[2] = Toxicokinetics after single oral gavage dose, total Ag in whole blood (ICP-MS)
[3] = Toxicokinetics after 28 days repeated oral gavage dosing, total Ag in whole blood (ICP-MS); conditions: for AUC0-t / DN AUC0-t: 0 to 96 h post-dose
[4] = Behaviour, homogeneity and stability of dosing formulations; assay type: physicochemical; conditions: oral: 1% MC (AgMP, AgNP) or purified water (AgAc, AgNO3); i.v.: 5% glucose or purified water
Experimental: Further details are provided under Supplementary information.
Polypropylene vessels and containers were used throughout preparation and storage to limit artefactual loss of Ag from adsorption onto surfaces (Sekine et al. [2015]). Vessels were pre-cleaned with a dilute nitric acid solution and then rinsed thoroughly with ultrapure water to remove contaminants. Chloride- or phosphate-containing vehicles and reagents were avoided to prevent Ag precipitation. Dosing formulations were prepared once for the single-dose administrations, and weekly for the repeated dose phase (divided into daily aliquots). […]
An extensive analytical pre-testing program was performed to fully characterize the test items and develop protocols to optimise the homogeneity and stability of dosing formulations. […] The Ag^+ fraction in the silver powder (AgMP) dosing formulations was determined to be a maximum of 0.004%. […]
To assure their accurate concentration, uniform homogeneity and physical stability, dosing formulation concentrations were analytically verified after preparation but before first administration using inductively coupled plasma mass spectrometry (ICP-MS) for determination of total Ag content. […] Samples of each formulation prepared for i.v. and single oral administration, as well as for Weeks 1 and 4 of the repeated dosing segment were analysed. […]

[5] = single oral dose 5 mg/kg bw [Ag equivalent 3.25 AgAc, 3.2 AgNO3], female
[6] = single oral dose 5 mg/kg bw [Ag equivalent 3.25 AgAc, 3.2 AgNO3], male
[7] = single oral dose 175 [114 Ag] mg/kg bw, female
[8] = single oral dose 175 [114 Ag] mg/kg bw, male
[9] = 28 d oral 5 mg/kg bw/d [Ag equivalent 3.25 AgAc, 3.2 AgNO3], female
[10] = 28 d oral 5 mg/kg bw/d [Ag equivalent 3.25 AgAc, 3.2 AgNO3], male
[11] = 28 d oral 175 [114 Ag] mg/kg bw/d, female
[12] = 28 d oral 175 [114 Ag] mg/kg bw/d, male
[13] = single oral dose 125 [80 Ag] mg/kg bw, female
[14] = single oral dose 125 [80 Ag] mg/kg bw, male
[15] = 28 d oral 125 [80 Ag] mg/kg bw/d, female
[16] = 28 d oral 125 [80 Ag] mg/kg bw/d, male

With `CC(=O)[O-].[Ag+]` [AgAc, Silver(I) acetate] the “absolute bioavailability (F value)” value [1] was at most 5%, the “AUC0-t” value [2, 5] was 2360 ng·h/mL and the Cmax [2, 5] was 108 ng/mL. The “DN AUC0-t” value [2, 5] was 726 (ng.h/mL)/(mg/kg bw/d), the “DN AUC(0–24)” value [2, 5] was 431 (ng.h/mL)/(mg/kg bw/d) and the Tmax [2, 5] was 3.5 h. The t1/2 [2, 5] was 24.5 h, the “AUC0-t” value [2, 6] was 1430 ng·h/mL and the Cmax [2, 6] was 71.6 ng/mL. For the same compound, the “DN AUC0-t” value [2, 6] was 440 (ng.h/mL)/(mg/kg bw/d), the “DN AUC(0–24)” value [2, 6] was 323 (ng.h/mL)/(mg/kg bw/d) and the Tmax [2, 6] was 5 h. For the same compound, the t1/2 [2, 6] was 23.2 h, the “AUC0-t” value [2, 7] was 31,100 ng.h/mL and the Cmax [2, 7] was 632 ng/mL. For the same compound, the “DN AUC0-t” value [2, 7] was 273 (ng.h/mL)/(mg/kg bw/d), the “DN AUC(0–24)” value [2, 7] was 87 (ng.h/mL)/(mg/kg bw/d) and the Tmax [2, 7] was 15.3 h. The t1/2 [2, 7] was 25.5 h, the “AUC0-t” value [2, 8] was 23,300 ng.h/mL and the Cmax [2, 8] was 367 ng/mL. For the same compound, the “DN AUC0-t” value [2, 8] was 204 (ng.h/mL)/(mg/kg bw/d), the “DN AUC(0–24)” value [2, 8] was 55 (ng.h/mL)/(mg/kg bw/d) and the Tmax [2, 8] was 20.3 h. The AUC0-t [3, 9] was 10,200 ng.h/mL, the “DN AUC0-t” value [3, 9] was 2960 (ng.h/mL)/(mg/kg bw/d) and the AUC0-t [3, 10] was 6220 ng·h/mL. For the same compound, the “DN AUC0-t” value [3, 10] was 1770 (ng.h/mL)/(mg/kg bw/d), the Cmax [3, 9] was 216 ng/mL and the Tmax [3, 9] was 3 h. For the same compound, the t1/2 [3, 9] was 41.3 h, the Cmax [3, 10] was 153 ng/mL and the Tmax [3, 10] was 7.5 h. For the same compound, the t1/2 [3, 10] was 32.1 h, the AUC0-t [3, 11] was 51,000 ng.h/mL and the “DN AUC0-t” value [3, 11] was 400 (ng.h/mL)/(mg/kg bw/d). The AUC0-t [3, 12] was 43,000 ng.h/mL, the “DN AUC0-t” value [3, 12] was 342 (ng.h/mL)/(mg/kg bw/d) and the Cmax [3, 11] was 930 ng/mL. For the same compound, the Tmax [3, 11] was 3 h, the t1/2 [3, 11] was 40.4 h and the Cmax [3, 12] was 766 ng/mL. For the same compound, the Tmax [3, 12] was 3 h, the t1/2 [3, 12] was 36.3 h and the “Behaviour in dosing vehicles” value [4] was “Soluble up to the highest concentration of test item employed. See also Table 2”.

For `O=[N+]([O-])[O-].[Ag+]` [AgNO3, silver(I) nitrate], the “absolute bioavailability (F value)” value [1] was at most 5%, the “AUC0-t” value [2, 5] was 4610 ng·h/mL and the “AUC(0–24)” value [2, 5] was 1740 ng·h/mL. It also gave a Cmax [2, 5] of 109 ng/mL, a Tmax [2, 5] of 3.25 h and a t1/2 [2, 5] of 30.8 h. For the same compound, the “AUC0-t” value [2, 6] was 1550 ng·h/mL, the “AUC(0–24)” value [2, 6] was 994 ng·h/mL and the Cmax [2, 6] was 62.5 ng/mL. For the same compound, the Tmax [2, 6] was 2.5 h, the t1/2 [2, 6] was 18.7 h and the “AUC0-t” value [2, 13] was 18,700 ng.h/mL. For the same compound, the “AUC(0–24)” value [2, 13] was 7670 ng·h/mL, the Cmax [2, 13] was 421 ng/mL and the Tmax [2, 13] was 15 h. For the same compound, the t1/2 [2, 13] was 31.7 h, the “AUC0-t” value [2, 14] was 19,400 ng.h/mL and the “AUC(0–24)” value [2, 14] was 5970 ng·h/mL. It also gave a Cmax [2, 14] of 348 ng/mL, a Tmax [2, 14] of 21 h and a t1/2 [2, 14] of 37.6 h. The AUC0-t [3, 9] was 7690 ng·h/mL, the AUC0-t [3, 10] was 5470 ng·h/mL and the Cmax [3, 9] was 177 ng/mL. The Tmax [3, 9] was 6 h, the t1/2 [3, 9] was 37.5 h and the Cmax [3, 10] was 132 ng/mL. For the same compound, the Tmax [3, 10] was 4.5 h, the t1/2 [3, 10] was 42.1 h and the AUC0-t [3, 15] was 54,100 ng.h/mL. For the same compound, the AUC0-t [3, 16] was 42,800 ng.h/mL, the Cmax [3, 15] was 997 ng/mL and the Tmax [3, 15] was 18 h. It also gave a t1/2 [3, 15] of 39.8 h, a Cmax [3, 16] of 738 ng/mL and a Tmax [3, 16] of 12 h. For the same compound, the t1/2 [3, 16] was 42.0 h and the “Behaviour in dosing vehicles” value [4] was “Soluble up to the highest concentration of test item employed. See also Table 2”.
